Measured values from article PMC7252619 (PLoS ONE, 2020).
Where two headings read alike, the source gives them in different places.

Tests used:
CDC7 = target: T1, CDC7 (Homo sapiens, UniProt O00311); assay: Kinase activity test (ReactionBiology), % enzyme activity relative to DMSO; assay type: biochemical;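 further: each drug screened at both 10 µM and 1 µM across a ten-kinase panel, activity expressed as percent of DMSO control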
T1 construct: purchased ReactionBiology

[1] = tested on: human PBMCs (responder cells) with RPMI1788 stimulator cells; assay: Mixed Lymphocyte Reaction (MLR, T cell assay), 3H-thymidine incorporation; assay type: cell-based; conditions: for IC50: Homo sapiens
EPHB4 = target: T2, EPHB4 (Homo sapiens, UniProt P54760); assay: Kinase activity test (ReactionBiology), % enzyme activity relative to DMSO; assay type: biochemical; conditions: EPHB4;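 further: EPHB4 was one of ten selected kinases in the screening panel, with enzyme activity expressed as a percentage of DMSO controls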
T2 construct: purchased ReactionBiology
T2 sequence (P54760 16-987): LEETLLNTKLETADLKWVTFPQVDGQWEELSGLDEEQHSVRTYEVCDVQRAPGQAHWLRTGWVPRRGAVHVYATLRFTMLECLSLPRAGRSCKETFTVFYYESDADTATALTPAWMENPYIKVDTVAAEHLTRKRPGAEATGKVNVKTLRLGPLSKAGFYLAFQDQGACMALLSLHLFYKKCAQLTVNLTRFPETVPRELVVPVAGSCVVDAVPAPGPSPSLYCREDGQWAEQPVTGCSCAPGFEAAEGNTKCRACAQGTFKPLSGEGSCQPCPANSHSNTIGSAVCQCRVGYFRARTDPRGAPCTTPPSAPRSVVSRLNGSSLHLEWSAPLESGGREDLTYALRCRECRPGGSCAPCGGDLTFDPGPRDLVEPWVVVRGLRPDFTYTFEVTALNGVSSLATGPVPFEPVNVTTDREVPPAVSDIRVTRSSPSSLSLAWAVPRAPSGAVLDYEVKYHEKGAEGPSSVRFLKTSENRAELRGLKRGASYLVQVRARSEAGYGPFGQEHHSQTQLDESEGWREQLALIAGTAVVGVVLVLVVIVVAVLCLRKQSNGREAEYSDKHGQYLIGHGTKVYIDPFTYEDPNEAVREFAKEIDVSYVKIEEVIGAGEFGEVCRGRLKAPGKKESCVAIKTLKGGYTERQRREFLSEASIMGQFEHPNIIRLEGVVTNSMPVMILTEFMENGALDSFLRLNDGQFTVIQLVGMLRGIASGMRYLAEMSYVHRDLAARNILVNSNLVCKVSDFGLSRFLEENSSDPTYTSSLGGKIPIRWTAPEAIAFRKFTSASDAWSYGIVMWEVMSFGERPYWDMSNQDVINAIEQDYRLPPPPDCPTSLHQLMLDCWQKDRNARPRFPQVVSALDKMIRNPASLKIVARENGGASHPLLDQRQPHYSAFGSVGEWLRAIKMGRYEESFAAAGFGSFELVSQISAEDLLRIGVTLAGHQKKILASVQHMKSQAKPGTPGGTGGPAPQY

[2] = WST-1 cytotoxicity assay on Jurkat cells (T-cell line); assay type: cell-based, human; conditions: human, Jurkat cells (T-cell line), mean of 4 independent measures, read-out: Cytotoxicity, WST-1 Jurkat IC 50 (µM) Mean
VEGFR2 = VEGFR2 (Homo sapiens, UniProt P35968); assay: Kinase activity test (ReactionBiology), % enzyme activity relative to DMSO; assay type: biochemical; parameters: purchased ReactionBiology; conditions: VEGFR2;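 further: VEGFR2 was one member of a ten-kinase screening panel testing marketed FDA-approved drugs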
CK1d = target: T3, CK1d (Homo sapiens, UniProt P48730); assay: as above; assay type: biochemical; conditions: CK1d
T3 construct: purchased ReactionBiology

MAP2K2 = target: T4, MAP2K2 (Homo sapiens, UniProt P36507); assay: as above; assay type: biochemical
T4 construct: purchased ReactionBiology

human CD19+ B cells = assay: B-cell assay: IgG production of ODN2006-stimulated primary B cells (AlphaLISA); assay type: cell-based; conditions: Homo sapiens, B-cell, 168 h; IgG production, ODN2006 0.1 μM, 7 days; mean of 4 independent experiments; read-out: B-cell IC50
[3] = WST-1 cytotoxicity assay on RPMI1788 cells (B-cell line); assay type: cell-based, human; conditions: human, RPMI1788 cells (B-cell line), mean of 4 independent measures, read-out: Cytotoxicity, WST-1 RPMI 1788 IC 50 (µM) Mean
Method: Compounds were prepared as 10 mM stock solutions in dimethylsulfoxide (DMSO)and were tested at 50-10-1-0.1-0.01 and 0.001 μM in the 4 assays.
The human B cell line RPMI1788 (American Type Culture Collection, USA) and the human T cell line Jurkat (European Collection of Cell Cultures, ECACC, England) were maintained in RPMI1640 culture medium (BioWhittaker®, Lonza, Verviers, Belgium) containing 10% foetal calf serum (FCS, HyClone® Thermo Scientific, United Kingdom) and 5 μg/mL gentamicin sulphate (BioWhittaker®, Lonza, Verviers, Belgium) at 37°C and 5% CO2.
WST-1 assays on RPMI-1788 cells and Jurkat cells were performed as follows: 20 μL of test compound dilution were added to each well containing exponential growing cells and the plates were incubated for 48 h at 37°C, 5% CO2. Untreated cells and positive control (1% triton X-100, for the last 15 min) served as reference for maximum and minimum viability. At the end of incubation 100 μL of supernatant were removed and replaced by 10 μL of WST-1 solution (Cell Proliferation Reagent WST-1, Roche Applied Science).

NEK2 = target: T5, NEK2 (Homo sapiens, UniProt P51955); assay: Kinase activity test (ReactionBiology), % enzyme activity relative to DMSO; assay type: biochemical;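 further: FDA-approved drugs chosen by structure-based repositioning, each screened at 10 or 1 µM for kinase activity, expressed as percent of DMSO controls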
T5 construct: purchased ReactionBiology
T5 sequence (P51955 1-445): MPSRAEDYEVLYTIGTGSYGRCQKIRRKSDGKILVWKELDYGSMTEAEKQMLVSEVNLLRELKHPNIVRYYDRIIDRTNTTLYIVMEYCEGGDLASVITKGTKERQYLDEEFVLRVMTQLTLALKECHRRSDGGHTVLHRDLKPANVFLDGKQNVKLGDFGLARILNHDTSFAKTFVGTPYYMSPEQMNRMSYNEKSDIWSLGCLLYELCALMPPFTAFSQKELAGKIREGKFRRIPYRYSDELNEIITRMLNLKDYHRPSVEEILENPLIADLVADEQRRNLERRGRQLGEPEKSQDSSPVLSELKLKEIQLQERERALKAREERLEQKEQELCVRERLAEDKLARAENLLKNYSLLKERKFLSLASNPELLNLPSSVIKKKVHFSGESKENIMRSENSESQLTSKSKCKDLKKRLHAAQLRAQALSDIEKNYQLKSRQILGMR

MLK4 = target: T6, MLK4 (Homo sapiens, UniProt Q5TCX8); assay type: biochemical; conditions: for % Enzyme Activity (relative to DMSO controls), Data 1: replicate Data 1; for % Enzyme Activity (relative to DMSO controls), Data 2: replicate Data 2
T6 construct: purchased ReactionBiology

MST-4 = target: T7, MST-4 (Homo sapiens, UniProt Q9P289); assay: Kinase activity test (ReactionBiology), % enzyme activity relative to DMSO; assay type: biochemical; conditions: MST4;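 further: marketed FDA-approved drugs screened at 10 µM and 1 µM against a ten-kinase panel, remaining activity given as percent of DMSO controls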
T7 construct: purchased ReactionBiology

DAPK1 = target: T8, DAPK1 (Homo sapiens, UniProt P53355); assay: as above; assay type: biochemical; conditions: DAPK1
T8 construct: purchased ReactionBiology

[4] = read-out: % Enzyme Activity (relative to DMSO controls), Average
[5] = read-out: % Enzyme Activity (relative to DMSO controls), Data 1
[6] = read-out: % Enzyme Activity (relative to DMSO controls), Data 2
[7] = read-out: % Enzyme activity at 1μM
[8] = read-out: % Enzyme activity at 10μM
[9] = Average, read-out: % Enzyme Activity (relative to DMSO controls), Average
[10] = replicate Data 1, read-out: % Enzyme Activity (relative to DMSO controls), Data 1
[11] = replicate Data 2, read-out: % Enzyme Activity (relative to DMSO controls), Data 2

T6 sequence (Q5TCX8 whole entry): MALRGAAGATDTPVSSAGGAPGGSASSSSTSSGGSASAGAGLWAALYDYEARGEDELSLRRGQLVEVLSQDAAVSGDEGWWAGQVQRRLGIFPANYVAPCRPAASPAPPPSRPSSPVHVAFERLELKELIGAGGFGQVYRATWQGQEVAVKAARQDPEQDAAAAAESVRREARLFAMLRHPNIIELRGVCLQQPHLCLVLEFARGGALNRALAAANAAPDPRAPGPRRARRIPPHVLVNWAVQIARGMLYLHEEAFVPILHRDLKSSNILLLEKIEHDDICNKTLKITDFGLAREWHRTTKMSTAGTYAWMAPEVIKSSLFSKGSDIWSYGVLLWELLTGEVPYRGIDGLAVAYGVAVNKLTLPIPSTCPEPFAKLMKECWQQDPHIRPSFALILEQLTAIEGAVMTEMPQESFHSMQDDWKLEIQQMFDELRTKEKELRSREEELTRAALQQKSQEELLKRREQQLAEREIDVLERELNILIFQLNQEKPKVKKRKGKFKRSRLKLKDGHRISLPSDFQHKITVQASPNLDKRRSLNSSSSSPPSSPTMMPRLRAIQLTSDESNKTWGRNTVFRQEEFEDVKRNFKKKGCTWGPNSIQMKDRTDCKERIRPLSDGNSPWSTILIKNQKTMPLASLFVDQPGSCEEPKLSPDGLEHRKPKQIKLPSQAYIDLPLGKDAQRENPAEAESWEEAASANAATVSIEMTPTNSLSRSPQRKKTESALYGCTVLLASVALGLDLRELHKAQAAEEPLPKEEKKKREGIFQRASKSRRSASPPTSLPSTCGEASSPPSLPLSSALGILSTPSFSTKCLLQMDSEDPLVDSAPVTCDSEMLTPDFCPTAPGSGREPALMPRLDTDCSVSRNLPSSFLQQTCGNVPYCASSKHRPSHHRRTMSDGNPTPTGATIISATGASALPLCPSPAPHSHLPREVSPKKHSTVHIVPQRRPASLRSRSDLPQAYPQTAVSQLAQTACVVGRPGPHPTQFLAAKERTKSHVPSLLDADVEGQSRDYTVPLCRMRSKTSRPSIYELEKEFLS
T3 sequence (P48730 whole entry): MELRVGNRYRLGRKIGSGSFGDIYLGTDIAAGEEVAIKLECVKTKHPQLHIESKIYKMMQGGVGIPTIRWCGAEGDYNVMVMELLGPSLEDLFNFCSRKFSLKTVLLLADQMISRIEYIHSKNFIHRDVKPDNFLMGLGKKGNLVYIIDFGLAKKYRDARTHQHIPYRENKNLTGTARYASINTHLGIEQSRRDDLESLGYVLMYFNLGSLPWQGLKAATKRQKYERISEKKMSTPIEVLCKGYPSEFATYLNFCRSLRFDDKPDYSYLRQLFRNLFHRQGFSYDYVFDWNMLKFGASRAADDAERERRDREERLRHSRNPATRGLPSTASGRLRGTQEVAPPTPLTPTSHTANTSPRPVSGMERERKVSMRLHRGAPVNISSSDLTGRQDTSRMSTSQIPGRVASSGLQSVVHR
Sequence of VEGFR2 (P35968 20-1356): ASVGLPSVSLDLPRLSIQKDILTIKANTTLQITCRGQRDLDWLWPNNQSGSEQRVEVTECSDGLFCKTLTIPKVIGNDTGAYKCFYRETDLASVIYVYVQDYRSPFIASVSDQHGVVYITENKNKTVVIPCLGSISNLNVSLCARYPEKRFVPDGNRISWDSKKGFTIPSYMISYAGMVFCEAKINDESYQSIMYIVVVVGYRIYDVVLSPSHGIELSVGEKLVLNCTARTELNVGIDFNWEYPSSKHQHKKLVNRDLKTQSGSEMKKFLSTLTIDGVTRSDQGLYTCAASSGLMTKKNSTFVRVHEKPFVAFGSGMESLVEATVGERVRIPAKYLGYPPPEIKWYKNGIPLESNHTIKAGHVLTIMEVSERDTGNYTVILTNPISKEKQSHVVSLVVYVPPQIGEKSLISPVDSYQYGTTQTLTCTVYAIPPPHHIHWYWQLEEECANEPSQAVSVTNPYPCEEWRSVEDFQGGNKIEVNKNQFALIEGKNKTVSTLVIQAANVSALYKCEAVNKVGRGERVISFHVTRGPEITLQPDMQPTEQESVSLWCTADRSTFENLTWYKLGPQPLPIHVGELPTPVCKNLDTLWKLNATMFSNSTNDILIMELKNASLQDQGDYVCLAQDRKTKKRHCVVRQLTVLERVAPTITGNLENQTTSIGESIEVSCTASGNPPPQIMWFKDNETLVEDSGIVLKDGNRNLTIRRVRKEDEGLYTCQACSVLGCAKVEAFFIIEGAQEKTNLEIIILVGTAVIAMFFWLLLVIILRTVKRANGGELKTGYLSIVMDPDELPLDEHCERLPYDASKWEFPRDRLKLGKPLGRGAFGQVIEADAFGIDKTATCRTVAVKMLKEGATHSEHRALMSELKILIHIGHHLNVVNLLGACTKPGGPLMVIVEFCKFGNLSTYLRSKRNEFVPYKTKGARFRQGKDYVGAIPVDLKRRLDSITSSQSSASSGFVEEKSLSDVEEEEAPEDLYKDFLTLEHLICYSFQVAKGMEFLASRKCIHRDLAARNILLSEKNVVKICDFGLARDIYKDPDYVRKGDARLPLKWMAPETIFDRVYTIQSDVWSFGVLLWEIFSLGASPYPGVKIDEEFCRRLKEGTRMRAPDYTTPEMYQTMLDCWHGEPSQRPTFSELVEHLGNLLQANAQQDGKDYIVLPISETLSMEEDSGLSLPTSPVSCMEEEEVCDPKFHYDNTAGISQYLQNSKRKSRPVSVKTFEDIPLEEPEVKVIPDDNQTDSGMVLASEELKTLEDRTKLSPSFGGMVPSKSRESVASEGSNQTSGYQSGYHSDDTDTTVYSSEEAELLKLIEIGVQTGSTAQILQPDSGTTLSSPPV
T4 sequence (P36507 whole entry): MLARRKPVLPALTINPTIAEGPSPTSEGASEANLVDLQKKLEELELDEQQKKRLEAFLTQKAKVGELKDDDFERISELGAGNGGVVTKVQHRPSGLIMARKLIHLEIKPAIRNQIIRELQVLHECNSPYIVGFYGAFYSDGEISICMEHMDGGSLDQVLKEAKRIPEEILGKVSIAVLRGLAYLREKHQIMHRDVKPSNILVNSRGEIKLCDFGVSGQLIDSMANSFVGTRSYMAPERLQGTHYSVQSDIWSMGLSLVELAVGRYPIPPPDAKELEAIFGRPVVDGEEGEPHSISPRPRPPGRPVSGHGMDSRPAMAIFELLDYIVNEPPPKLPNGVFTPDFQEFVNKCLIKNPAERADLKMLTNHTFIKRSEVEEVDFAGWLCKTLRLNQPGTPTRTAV
T8 sequence (P53355 whole entry): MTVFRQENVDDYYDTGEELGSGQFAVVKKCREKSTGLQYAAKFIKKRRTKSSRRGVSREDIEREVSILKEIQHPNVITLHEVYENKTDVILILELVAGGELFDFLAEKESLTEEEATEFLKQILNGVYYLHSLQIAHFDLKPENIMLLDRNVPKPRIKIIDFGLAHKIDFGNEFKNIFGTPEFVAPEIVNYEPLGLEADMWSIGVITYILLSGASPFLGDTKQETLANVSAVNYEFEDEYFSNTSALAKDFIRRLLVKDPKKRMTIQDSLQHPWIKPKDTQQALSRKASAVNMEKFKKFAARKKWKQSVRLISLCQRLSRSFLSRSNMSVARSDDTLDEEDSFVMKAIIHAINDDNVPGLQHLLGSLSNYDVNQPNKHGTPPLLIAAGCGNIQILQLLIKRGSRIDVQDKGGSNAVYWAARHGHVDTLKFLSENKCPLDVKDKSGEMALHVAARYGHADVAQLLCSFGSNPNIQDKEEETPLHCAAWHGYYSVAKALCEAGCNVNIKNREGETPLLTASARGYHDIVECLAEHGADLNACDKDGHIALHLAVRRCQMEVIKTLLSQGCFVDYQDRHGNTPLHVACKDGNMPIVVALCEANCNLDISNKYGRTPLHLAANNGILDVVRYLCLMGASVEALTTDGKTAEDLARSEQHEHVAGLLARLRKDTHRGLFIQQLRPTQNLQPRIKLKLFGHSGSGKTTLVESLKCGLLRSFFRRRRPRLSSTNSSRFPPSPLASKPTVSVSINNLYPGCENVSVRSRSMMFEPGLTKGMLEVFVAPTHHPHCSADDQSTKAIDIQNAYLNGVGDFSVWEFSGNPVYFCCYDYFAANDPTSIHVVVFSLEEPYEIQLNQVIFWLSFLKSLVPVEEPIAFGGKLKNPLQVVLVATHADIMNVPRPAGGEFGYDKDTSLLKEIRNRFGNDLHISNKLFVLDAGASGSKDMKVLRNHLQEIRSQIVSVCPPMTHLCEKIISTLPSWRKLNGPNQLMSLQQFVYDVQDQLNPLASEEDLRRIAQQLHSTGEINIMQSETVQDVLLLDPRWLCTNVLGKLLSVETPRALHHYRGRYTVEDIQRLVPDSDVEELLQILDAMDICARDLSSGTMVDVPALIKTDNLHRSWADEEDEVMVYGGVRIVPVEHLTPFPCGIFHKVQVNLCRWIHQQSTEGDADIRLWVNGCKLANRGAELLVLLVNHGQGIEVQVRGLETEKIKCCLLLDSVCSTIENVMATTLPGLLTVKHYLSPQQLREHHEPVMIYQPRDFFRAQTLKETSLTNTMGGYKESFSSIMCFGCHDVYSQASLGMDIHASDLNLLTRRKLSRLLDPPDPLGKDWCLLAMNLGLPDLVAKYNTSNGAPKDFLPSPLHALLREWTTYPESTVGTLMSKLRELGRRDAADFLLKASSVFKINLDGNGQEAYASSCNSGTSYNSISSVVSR
T7 sequence (Q9P289 whole entry): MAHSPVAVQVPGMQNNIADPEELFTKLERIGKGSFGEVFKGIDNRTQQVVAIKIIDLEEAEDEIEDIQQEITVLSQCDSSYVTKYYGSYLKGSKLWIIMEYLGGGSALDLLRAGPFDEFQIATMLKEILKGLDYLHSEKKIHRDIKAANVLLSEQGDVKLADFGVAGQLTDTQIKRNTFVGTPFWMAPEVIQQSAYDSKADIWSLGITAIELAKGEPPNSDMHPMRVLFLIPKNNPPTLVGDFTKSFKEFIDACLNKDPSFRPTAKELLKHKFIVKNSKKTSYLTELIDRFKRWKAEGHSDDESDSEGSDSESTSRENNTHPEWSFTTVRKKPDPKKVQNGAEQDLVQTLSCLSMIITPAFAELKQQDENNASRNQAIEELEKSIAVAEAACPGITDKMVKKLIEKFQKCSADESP

Oc1cc(Cl)ccc1Oc1ccc(Cl)cc1Cl [Triclosan, reference compound]
remaining activity at 1 µM (CDC7; [4]): 70.5% | remaining activity at 10 µM (CDC7; [4]): 65.4% | remaining activity at 1 µM (CDC7; [5]): 68.2% | remaining activity at 10 µM (CDC7; [5]): 71.2% | remaining activity at 1 µM (CDC7; [6]): 72.7% | remaining activity at 10 µM (CDC7; [6]): 59.7% | remaining activity at 1 µM (CDC7; [7]): 70.5% | remaining activity at 10 µM (CDC7; [8]): 65.4% | IC50 ([1]; RPMI-1788, read-out: T-cell efficacy, MLR IC 50 (µM) Mean): 34.3 µM | Selectivity Index (SI) MLR/B-cell ([1]; ratio of IC50 values): 1.64 | remaining activity at 1 µM (EPHB4; [9]): 100% | remaining activity at 1 µM (EPHB4; [10]): 101% | remaining activity at 1 µM (EPHB4; [11]): 99.9% | remaining activity at 10 µM (EPHB4; [9]): 97.4% | remaining activity at 10 µM (EPHB4; [10]): 97.3% | remaining activity at 10 µM (EPHB4; [11]): 97.4% | IC50 at 48 h [2]: 26.2 µM | remaining activity at 1 µM (VEGFR2; [9]): 111% | remaining activity at 1 µM (VEGFR2; [10]): 108% | remaining activity at 1 µM (VEGFR2; [11]): 114% | remaining activity at 10 µM (VEGFR2; [9]): 101% | remaining activity at 10 µM (VEGFR2; [10]): 103% | remaining activity at 10 µM (VEGFR2; [11]): 99.9% | remaining activity at 1 µM (CK1d; [9]): 96.6% | remaining activity at 1 µM (CK1d; [10]): 94.8% | remaining activity at 1 µM (CK1d; [11]): 98.3% | remaining activity at 10 µM (CK1d; [9]): 96.9% | remaining activity at 10 µM (CK1d; [10]): 97.8% | remaining activity at 10 µM (CK1d; [11]): 96% | remaining activity at 1 µM (MAP2K2; [4]): 97.6% | remaining activity at 10 µM (MAP2K2; [4]): 96% | remaining activity at 1 µM (MAP2K2; [5]): 95.3% | remaining activity at 10 µM (MAP2K2; [5]): 95% | remaining activity at 1 µM (MAP2K2; [6]): 99.8% | remaining activity at 10 µM (MAP2K2; [6]): 97.1% | IC50 (human CD19+ B cells): 20.9 µM | IC50 at 48 h [3]: 27.7 µM | remaining activity at 1 µM (NEK2; [4]): 99.2% | remaining activity at 10 µM (NEK2; [4]): 64.6% | remaining activity at 1 µM (NEK2; [5]): 98.5% | remaining activity at 10 µM (NEK2; [5]): 68.9% | remaining activity at 1 µM (NEK2; [6]): 99.8% | remaining activity at 10 µM (NEK2; [6]): 60.4% | remaining activity at 1 µM (NEK2; [7]): 99.2% | remaining activity at 10 µM (NEK2; [8]): 64.6%

NCCC(O)(P(=O)(O)O)P(=O)(O)O [Pamidronate]
% Enzyme Activity (relative to DMSO controls), Average (MLK4; 1 uM): 79.13% | % Enzyme Activity (relative to DMSO controls), Data 1 (MLK4; 1 uM): 76.76% | % Enzyme Activity (relative to DMSO controls), Data 2 (MLK4; 1 uM): 81.5% | % Enzyme Activity (relative to DMSO controls), Average (MLK4; 10 uM): 78.77% | % Enzyme Activity (relative to DMSO controls), Data 1 (MLK4; 10 uM): 82.48% | % Enzyme Activity (relative to DMSO controls), Data 2 (MLK4; 10 uM): 75.06%

Cc1nc(Nc2ncc(C(=O)Nc3c(C)cccc3Cl)s2)cc(N2CCN(CCO)CC2)n1 [Dasatinib, reference compound]
IC50 ([1]; RPMI-1788, mean of 4 independent measures, read-out: T-cell efficacy, MLR IC 50 (µM) Mean): 0.0032 µM | IC50 at 48 h [2]: 7.3 µM | remaining activity at 1 µM (MST-4; [9]): 40.2% | remaining activity at 1 µM (MST-4; [10]): 46.5% | remaining activity at 1 µM (MST-4; [11]): 33.9% | remaining activity at 10 µM (MST-4; [9]): 12% | remaining activity at 10 µM (MST-4; [10]): 9.39% | remaining activity at 10 µM (MST-4; [11]): 14.6% | remaining activity at 1 µM (DAPK1; [9]): 92% | remaining activity at 1 µM (DAPK1; [10]): 91.8% | remaining activity at 1 µM (DAPK1; [11]): 92.1% | remaining activity at 10 µM (DAPK1; [9]): 51.4% | remaining activity at 10 µM (DAPK1; [10]): 49.9% | remaining activity at 10 µM (DAPK1; [11]): 52.8% | remaining activity at 1 µM (CK1d; [9]): 98.7% | remaining activity at 1 µM (CK1d; [10]): 95.4% | remaining activity at 1 µM (CK1d; [11]): 102% | remaining activity at 10 µM (CK1d; [9]): 92.7% | remaining activity at 10 µM (CK1d; [10]): 93.2% | remaining activity at 10 µM (CK1d; [11]): 92.2% | remaining activity at 1 µM (MAP2K2; MEK2, 1 uM, Average, read-out: % Enzyme Activity (relative to DMSO controls), Average): 45.1% | remaining activity at 1 µM (MAP2K2; MEK2, 1 uM, replicate Data 1, read-out: % Enzyme Activity (relative to DMSO controls), Data 1): 44.8% | remaining activity at 1 µM (MAP2K2; MEK2, 1 uM, replicate Data 2, read-out: % Enzyme Activity (relative to DMSO controls), Data 2): 45.5% | remaining activity at 10 µM (MAP2K2; MEK2, 10 uM, Average, read-out: % Enzyme Activity (relative to DMSO controls), Average): 7.91% | remaining activity at 10 µM (MAP2K2; MEK2, 10 uM, replicate Data 1, read-out: % Enzyme Activity (relative to DMSO controls), Data 1): 8.25% | remaining activity at 10 µM (MAP2K2; MEK2, 10 uM, replicate Data 2, read-out: % Enzyme Activity (relative to DMSO controls), Data 2): 7.56% | IC50 (human CD19+ B cells): 0.046 µM | IC50 at 48 h [3]: 0.0324 µM | remaining activity at 1 µM (NEK2; NEK2, 1 uM, Average, read-out: % Enzyme Activity (relative to DMSO controls), Average): 81.6% | remaining activity at 1 µM (NEK2; NEK2, 1 uM, replicate Data 1, read-out: % Enzyme Activity (relative to DMSO controls), Data 1): 81.9% | remaining activity at 1 µM (NEK2; NEK2, 1 uM, replicate Data 2, read-out: % Enzyme Activity (relative to DMSO controls), Data 2): 81.2% | remaining activity at 10 µM (NEK2; NEK2, 10 uM, Average, read-out: % Enzyme Activity (relative to DMSO controls), Average): 19% | remaining activity at 10 µM (NEK2; NEK2, 10 uM, replicate Data 1, read-out: % Enzyme Activity (relative to DMSO controls), Data 1): 20% | remaining activity at 10 µM (NEK2; NEK2, 10 uM, replicate Data 2, read-out: % Enzyme Activity (relative to DMSO controls), Data 2): 18%
